{"source": "the supplement of paper PMC10307832", "experiment_in_all_cases": "relative viability (nuclei count vs DMSO), 5 days (fraction); higher = more cells survive", "key": {"NCI-H1437": {"test_system": "NCI-H1437", "summary_of_the_method": "(§1)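 Cells from lung cancer lines were seeded into 1536-well plates and, one day later, dosed by pin tool. Treatments were either a single drug or a fixed dose of an anchor drug with five library-drug doses (not always all listed) in √10 steps. After 5 days, nuclei were stained in a one-step fixation (final 0.05% Triton X-100, 1% formaldehyde, 1 ug/ml Hoechst) and counted on 4× images, and relative viability is the treated-to-vehicle nuclei ratio, as the median of duplicate plates.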"}, "NCI-H1792": {"test_system": "NCI-H1792", "summary_of_the_method": "as §1"}, "NCI-H2170": {"test_system": "NCI-H2170", "summary_of_the_method": "as §1"}, "NCI-H1734": {"test_system": "NCI-H1734", "summary_of_the_method": "as §1"}, "BEN": {"test_system": "BEN", "summary_of_the_method": "as §1"}, "NCI-H661": {"test_system": "NCI-H661", "summary_of_the_method": "as §1"}, "EKVX": {"test_system": "EKVX", "summary_of_the_method": "as §1"}, "NCI-H1993": {"test_system": "NCI-H1993", "summary_of_the_method": "as §1"}, "NCI-H2087": {"test_system": "NCI-H2087", "summary_of_the_method": "as §1"}, "SK-LU-1": {"test_system": "SK-LU-1", "summary_of_the_method": "as §1"}, "NCI-H1355": {"test_system": "NCI-H1355", "summary_of_the_method": "as §1"}, "LOU-NH91": {"test_system": "LOU-NH91", "summary_of_the_method": "as §1"}, "HCC-366": {"test_system": "HCC-366", "summary_of_the_method": "as §1"}, "SK-MES-1": {"test_system": "SK-MES-1", "summary_of_the_method": "as §1"}, "HCC-827": {"test_system": "HCC-827", "summary_of_the_method": "as §1"}, "NCI-H647": {"test_system": "NCI-H647", "summary_of_the_method": "as §1"}, "HARA": {"test_system": "HARA", "summary_of_the_method": "as §1"}, "NCI-H2405": {"test_system": "NCI-H2405", "summary_of_the_method": "as §1"}, "NCI-H2009": {"test_system": "NCI-H2009", "summary_of_the_method": "as §1"}, "NCI-H1395": {"test_system": "NCI-H1395", "summary_of_the_method": "as §1"}}}
{"molecule": "Nc1ccn([C@@H]2O[C@H](CO)[C@@H](O)[C@@H]2O)c(=O)n1", "note": "[Cytarabine] + Cc1nc(NC(=O)N2CCC[C@H]2C(N)=O)sc1-c1ccnc(C(C)(C)C(F)(F)F)c1 [Alpelisib] (partner 2 µM)", "values": [{"measurement": "relative viability", "setting": "NCI-H1437; first compound 0.005 µM", "result": 0.666}, {"measurement": "relative viability", "setting": "NCI-H1437; first compound 0.01581 µM", "result": 0.631}, {"measurement": "relative viability", "setting": "NCI-H1437; first compound 0.05 µM", "result": 0.43}, {"measurement": "relative viability", "setting": "NCI-H1437; first compound 0.1581 µM", "result": 0.237}, {"measurement": "relative viability", "setting": "NCI-H1437; first compound 0.5 µM", "result": 0.151}, {"measurement": "relative viability", "setting": "NCI-H1792; first compound 0.005 µM", "result": 0.553}, {"measurement": "relative viability", "setting": "NCI-H1792; first compound 0.01581 µM", "result": 0.644}, {"measurement": "relative viability", "setting": "NCI-H1792; first compound 0.05 µM", "result": 0.659}, {"measurement": "relative viability", "setting": "NCI-H1792; first compound 0.1581 µM", "result": 0.387}, {"measurement": "relative viability", "setting": "NCI-H1792; first compound 0.5 µM", "result": 0.343}, {"measurement": "relative viability", "setting": "NCI-H2170; first compound 0.01581 µM", "result": 0.606}, {"measurement": "relative viability", "setting": "NCI-H2170; first compound 0.05 µM", "result": 0.562}, {"measurement": "relative viability", "setting": "NCI-H2170; first compound 0.1581 µM", "result": 0.389}, {"measurement": "relative viability", "setting": "NCI-H2170; first compound 0.5 µM", "result": 0.314}, {"measurement": "relative viability", "setting": "NCI-H1734; first compound 0.005 µM", "result": 0.39}, {"measurement": "relative viability", "setting": "NCI-H1734; first compound 0.01581 µM", "result": 0.265}, {"measurement": "relative viability", "setting": "NCI-H1734; first compound 0.05 µM", "result": 0.204}, {"measurement": "relative viability", "setting": "NCI-H1734; first compound 0.1581 µM", "result": 0.139}, {"measurement": "relative viability", "setting": "BEN; first compound 0.005 µM", "result": 0.832}, {"measurement": "relative viability", "setting": "BEN; first compound 0.01581 µM", "result": 0.821}, {"measurement": "relative viability", "setting": "BEN; first compound 0.05 µM", "result": 0.634}, {"measurement": "relative viability", "setting": "BEN; first compound 0.1581 µM", "result": 0.418}, {"measurement": "relative viability", "setting": "BEN; first compound 0.5 µM", "result": 0.353}, {"measurement": "relative viability", "setting": "NCI-H661; first compound 0.005 µM", "result": 0.811}, {"measurement": "relative viability", "setting": "NCI-H661; first compound 0.01581 µM", "result": 0.733}, {"measurement": "relative viability", "setting": "NCI-H661; first compound 0.05 µM", "result": 0.405}, {"measurement": "relative viability", "setting": "NCI-H661; first compound 0.1581 µM", "result": 0.24}, {"measurement": "relative viability", "setting": "NCI-H661; first compound 0.5 µM", "result": 0.214}, {"measurement": "relative viability", "setting": "EKVX; first compound 0.005 µM", "result": 0.867}, {"measurement": "relative viability", "setting": "EKVX; first compound 0.01581 µM", "result": 0.893}, {"measurement": "relative viability", "setting": "EKVX; first compound 0.05 µM", "result": 0.818}, {"measurement": "relative viability", "setting": "EKVX; first compound 0.1581 µM", "result": 0.371}, {"measurement": "relative viability", "setting": "EKVX; first compound 0.5 µM", "result": 0.211}, {"measurement": "relative viability", "setting": "NCI-H1993; first compound 0.005 µM", "result": 0.691}, {"measurement": "relative viability", "setting": "NCI-H1993; first compound 0.01581 µM", "result": 0.636}, {"measurement": "relative viability", "setting": "NCI-H1993; first compound 0.05 µM", "result": 0.642}, {"measurement": "relative viability", "setting": "NCI-H1993; first compound 0.1581 µM", "result": 0.501}, {"measurement": "relative viability", "setting": "NCI-H1993; first compound 0.5 µM", "result": 0.517}, {"measurement": "relative viability", "setting": "NCI-H2087; first compound 0.005 µM", "result": 0.962}, {"measurement": "relative viability", "setting": "NCI-H2087; first compound 0.01581 µM", "result": 1.1}, {"measurement": "relative viability", "setting": "NCI-H2087; first compound 0.05 µM", "result": 0.899}, {"measurement": "relative viability", "setting": "NCI-H2087; first compound 0.1581 µM", "result": 0.666}, {"measurement": "relative viability", "setting": "NCI-H2087; first compound 0.5 µM", "result": 0.452}, {"measurement": "relative viability", "setting": "SK-LU-1; first compound 0.005 µM", "result": 0.805}, {"measurement": "relative viability", "setting": "SK-LU-1; first compound 0.01581 µM", "result": 0.826}, {"measurement": "relative viability", "setting": "SK-LU-1; first compound 0.05 µM", "result": 0.62}, {"measurement": "relative viability", "setting": "SK-LU-1; first compound 0.1581 µM", "result": 0.347}, {"measurement": "relative viability", "setting": "SK-LU-1; first compound 0.5 µM", "result": 0.303}, {"measurement": "relative viability", "setting": "NCI-H1355; first compound 0.005 µM", "result": 0.825}, {"measurement": "relative viability", "setting": "NCI-H1355; first compound 0.01581 µM", "result": 0.758}, {"measurement": "relative viability", "setting": "NCI-H1355; first compound 0.05 µM", "result": 0.756}, {"measurement": "relative viability", "setting": "NCI-H1355; first compound 0.1581 µM", "result": 0.363}, {"measurement": "relative viability", "setting": "NCI-H1355; first compound 0.5 µM", "result": 0.264}, {"measurement": "relative viability", "setting": "LOU-NH91; first compound 0.005 µM", "result": 0.708}, {"measurement": "relative viability", "setting": "LOU-NH91; first compound 0.01581 µM", "result": 0.695}, {"measurement": "relative viability", "setting": "LOU-NH91; first compound 0.05 µM", "result": 0.603}, {"measurement": "relative viability", "setting": "LOU-NH91; first compound 0.1581 µM", "result": 0.425}, {"measurement": "relative viability", "setting": "LOU-NH91; first compound 0.5 µM", "result": 0.462}, {"measurement": "relative viability", "setting": "HCC-366; first compound 0.005 µM", "result": 0.281}, {"measurement": "relative viability", "setting": "HCC-366; first compound 0.01581 µM", "result": 0.228}, {"measurement": "relative viability", "setting": "HCC-366; first compound 0.05 µM", "result": 0.104}, {"measurement": "relative viability", "setting": "HCC-366; first compound 0.1581 µM", "result": 0.047}, {"measurement": "relative viability", "setting": "HCC-366; first compound 0.5 µM", "result": 0.019}, {"measurement": "relative viability", "setting": "SK-MES-1; first compound 0.005 µM", "result": 0.702}, {"measurement": "relative viability", "setting": "SK-MES-1; first compound 0.01581 µM", "result": 0.688}, {"measurement": "relative viability", "setting": "SK-MES-1; first compound 0.05 µM", "result": 0.393}, {"measurement": "relative viability", "setting": "SK-MES-1; first compound 0.1581 µM", "result": 0.243}, {"measurement": "relative viability", "setting": "SK-MES-1; first compound 0.5 µM", "result": 0.21}, {"measurement": "relative viability", "setting": "HCC-827; first compound 0.005 µM", "result": 0.697}, {"measurement": "relative viability", "setting": "HCC-827; first compound 0.01581 µM", "result": 0.448}, {"measurement": "relative viability", "setting": "HCC-827; first compound 0.05 µM", "result": 0.467}, {"measurement": "relative viability", "setting": "HCC-827; first compound 0.1581 µM", "result": 0.242}, {"measurement": "relative viability", "setting": "HCC-827; first compound 0.5 µM", "result": 0.197}, {"measurement": "relative viability", "setting": "NCI-H647; first compound 0.005 µM", "result": 0.491}, {"measurement": "relative viability", "setting": "NCI-H647; first compound 0.01581 µM", "result": 0.356}, {"measurement": "relative viability", "setting": "NCI-H647; first compound 0.05 µM", "result": 0.142}, {"measurement": "relative viability", "setting": "NCI-H647; first compound 0.1581 µM", "result": 0.086}, {"measurement": "relative viability", "setting": "NCI-H647; first compound 0.5 µM", "result": 0.0694}, {"measurement": "relative viability", "setting": "HARA; first compound 0.005 µM", "result": 0.598}, {"measurement": "relative viability", "setting": "HARA; first compound 0.01581 µM", "result": 0.376}, {"measurement": "relative viability", "setting": "HARA; first compound 0.05 µM", "result": 0.416}, {"measurement": "relative viability", "setting": "HARA; first compound 0.1581 µM", "result": 0.167}, {"measurement": "relative viability", "setting": "HARA; first compound 0.5 µM", "result": 0.143}, {"measurement": "relative viability", "setting": "NCI-H2405; first compound 0.005 µM", "result": 0.771}, {"measurement": "relative viability", "setting": "NCI-H2405; first compound 0.01581 µM", "result": 0.657}, {"measurement": "relative viability", "setting": "NCI-H2405; first compound 0.05 µM", "result": 0.512}, {"measurement": "relative viability", "setting": "NCI-H2405; first compound 0.1581 µM", "result": 0.527}, {"measurement": "relative viability", "setting": "NCI-H2405; first compound 0.5 µM", "result": 0.301}, {"measurement": "relative viability", "setting": "NCI-H2009; first compound 0.005 µM", "result": 1.14}, {"measurement": "relative viability", "setting": "NCI-H2009; first compound 0.01581 µM", "result": 1.13}, {"measurement": "relative viability", "setting": "NCI-H2009; first compound 0.05 µM", "result": 1.26}, {"measurement": "relative viability", "setting": "NCI-H2009; first compound 0.1581 µM", "result": 0.937}, {"measurement": "relative viability", "setting": "NCI-H2009; first compound 0.5 µM", "result": 0.473}, {"measurement": "relative viability", "setting": "NCI-H1395; first compound 0.005 µM", "result": 1.04}, {"measurement": "relative viability", "setting": "NCI-H1395; first compound 0.01581 µM", "result": 0.858}, {"measurement": "relative viability", "setting": "NCI-H1395; first compound 0.05 µM", "result": 0.583}, {"measurement": "relative viability", "setting": "NCI-H1395; first compound 0.1581 µM", "result": 0.423}, {"measurement": "relative viability", "setting": "NCI-H1395; first compound 0.5 µM", "result": 0.441}]}
